Data published in patent publication US20060025471A1, “Xanthenyl cubane analogs with activity at the metabotropic glutamate receptors” (priority 2002, published 2006).

How the values were obtained:
[1] = system: fear induced freezing; assay: Fear induced freezing model; type: in vivo, rat; settings: diazepam at 3 mg/kg; for reduction in freezing, context alone: environment alone; for reduction in freezing, context plus tone: environment with conditioning sound
From the text: The anxiolytic properties of a candidate compound can also be examined using the fear induced freezing model. Briefly, this test relies on the induction of a well known effect in rats when they are challenged. The rat is subjected to a mild shock associated with a sound which results in the animal becoming very still when expecting that shock. The effect of a candidate compound on fear induced freezing can be compared with a known standard such as diazepam and a negative control (such as buffer only). The fear induced freezing test can be conducted at various time points following administration of the candidate compound.
The anxiolytic properties of a thioxanthenyl cubane (Compound 6) were also examined using the fear induced freezing model. Briefly, this test relies on the induction of a well known effect in rats when they are challenged. The rat is subjected to a mild shock associated with a sound which results in the animal becoming very still when expecting that shock.
The animal is placed in its home cage for acclimatization before being placed back in the test environment in the presence or absence of test compound. The reduction in freezing is used as a measure of anxiolysis. […] The second paradigm (context plus tone) produces a larger and more difficult to overcome anxiety.

[2] = system: focal ischemia model; assay: Starch microsphere infusion focal ischemia model; type: in vivo, rat
Experimental: Alternatively, the starch microsphere infusion focal ischemia model can be used. Briefly, starch microspheres are injected unilaterally into one of the carotid arteries. Blood flow is temporarily occluded on the injected side for approximately 30 minutes. Reperfusion occurs after the initial starch clot is resolved. At various time points after ischemic insult the brain can be removed and examined for ischemic injury.
The compounds of the present invention have been evaluated in a rat model of focal ischemia which is similar to that seen in strokes in humans. Briefly, starch microspheres are injected unilaterally into one of the carotid arteries. Blood flow is temporarily occluded on the injected side for approximately 30 minutes. Reperfusion occurs after the initial starch clot is resolved. The test compound is administered either prophylactically before vessel occlusion or therapeutically post vessel occlusion.
The neuroprotective effects of a thioxanthenyl cubane (Compound 6) were further examined using a starch microsphere infusion focal ischemia model. Briefly, starch microspheres are injected unilaterally into one of the carotid arteries. Blood flow is temporarily occluded on the injected side for approximately 30 minutes. Reperfusion occurs after the initial starch clot is resolved.
Compound 6 was intra-peritoneally administered at dosages of 0.1, 1.0, and 10 mg/kg either prophylactically or therapeutically. The prophylactic dose schedule included a dose of Compound 6 administered 30 minutes prior to ischemic insult followed by doses at 30 minutes and 3 hours post insult. For therapeutic administration, Compound 6 was administered 3 hours post insult only. […] In addition to providing substantial neuroprotection, Compound 6 reduced the incidence of seizures following ischemic insult in a dose-dependent manner.

[3] = system: Cultured hippocampal pyramindal neurons; assay: In vitro anoxia study, neuronal cell death; type: cell-based; settings: 30 minutes anoxia; counts 24 hours post anoxic exposure
From the text: The ability of a candidate compound to inhibit neuronal cell death can be examined using an in vitro anoxia study. […] A candidate compound can be administered to the neuronal cell culture at various time points prior to exposure to the anoxic condition to examine the prophylactic activity of the compound or during or after exposure to the anoxic condition to examine therapeutic activity of the compound. Suitable negative controls include, for example, buffer in place of the candidate compound.
The neuroprotective effects of a thioxanthenyl cubane (Compound 6) were examined using an in vitro anoxia study. Cultured hippocampal pyramindal neurons were exposed to anoxic conditions (oxygen free buffer) for 30 minutes. Twenty-four hours post anoxic exposure cell counts were conducted manually.

[4] = system: social interaction; assay: Social interaction studies; type: in vivo, rat
Experimental: The effect of a candidate compound on social interaction can also be examined in rodents. Briefly, social interaction can be measured as follows: a strange intruder is introduced into the cage of an acclimatized treated rat and the number of times the rat either bites (# bites) or wrestles (# pins) the intruder is determined. The effect of a candidate compound on social interaction can be compared with a known standard such as diazepam and a negative control (such as buffer only). The social interaction test can be conducted at various time points following administration of the candidate compound.
The effect of a thioxanthenyl cubane (Compound 6) on social interaction was examined in rodents. Briefly, social interaction is measured as follows: a strange intruder is introduced into the cage of an acclimatized treated rat and the number of times the rat either bites (# bites) or wrestles (# pins) the intruder is determined. Compound 6 was administered at three doses and compared to saline and diazepam at 2 mg/kg.

[5] = system: elevated plus maze; assay: Elevated plus maze test; type: in vivo, rat
From the text: The anxiolytic properties of candidate compounds can be further evaluated using the elevated plus maze test. This test is dependent on the predisposition of rodents to remain in the dark and offers the choice between dark areas of the maze and the opportunity to explore lighted areas. The effect of a candidate compound on the elevated plus maze test can be compared with a known standard such as diazepam and a negative control (such as buffer only). The elevated maze plus test can be conducted at various time points following administration of the candidate compound.
To further examine the anxiolytic properties of a thioxanthenyl cubane (Compound 6), the elevated plus maze test was conducted. The elevated plus maze test is sensitive to benzodiazepine type anxiolytics while other anxiolytics such as the serotonin reuptake inhibitors (SSRIs) show poor efficacy in this test. This test is dependent on the predisposition of rodents to remain in the dark and offers the choice between dark areas of the maze and the opportunity to explore lighted areas.

[6] = system: fear potentiated startle; assay: Fear potentiated startle model; type: in vivo, rats
From the text: The fear potentiated startle model permits measurement of learned fear of a stimulus that has been paired with repeated foot shocks. The effect of a candidate compound on fear potentiated startle can be compared with a known standard such as diazepam and a negative control (such as buffer only). The fear potentiated startle test can be conducted at various time points following administration of a candidate compound.
The anxiolytic properties of a thioxanthenyl cubane (Compound 6) were examined using the fear potentiated startle model. This model permits measurement of learned fear of a stimulus that has been paired with repeated foot shocks. The effect of Compound 6 on fear potentiated startle was compared with the known standard, diazepam. All tests were run 30 min after intraperitoneal drug administration. Compound 6 was administered at 1.0, 3.0, 10 and 15 mg/kg in rats.
The oral bioavailability and efficacy of a thioxanthenyl cubane (Compound 6) was studied using the fear potentiated startle model. Compound 6 was administered by gavage at a dose of 12 mg/kg. Following a 90 minute period allowed for drug absorption, the oral efficacy was examined using the fear potentiated startle model. As shown in FIG. 8 oral Compound 6 was effective in reducing the fear potentiated startle model.
The onset and duration of a thioxanthenyl cubane (Compound 6) was studied using the fear potentiated startle model. Thioxanthenyl cubane was administered by gavage at a dose of 15 mg/kg. The effect of oral Compound 6 on fear potentiated startle was examined at 30 minutes, 1, 2, 4, 6 and 8 hours post drug administration.

[7] = system: rat global ischemia model; assay: Rat global ischemia model; type: in vivo; settings: 1 mg/kg intra-peritoneal post ischemic insult
From the text: The neuroprotective effects of a candidate compound can also be evaluated in a number of in vivo animal models including, the rat global ischemia model. Briefly, two of the four cerebral arteries are permanently occluded and surgical silk is loosely placed around the remaining two cerebral arteries. Temporary tightening of the surgical silk leads to 4 vessel occlusion and temporary global ischemia. At various time points after ischemic insult the brain can be removed and examined for ischemic injury.
The neuroprotective effects of a thioxanthenyl cubane (Compound 6) were examined in vivo using the rat global ischemia model. Briefly, two of the four cerebral arteries are permanently occluded and surgical silk is loosely placed around the remaining two cerebral arteries. Temporary tightening of the surgical silk leads to 4 vessel occlusion and temporary global ischemia. Seven days post ischemic insult, the brain is removed and the CA1 region of the hippocampus, a region very suspectible to ischemic damage, is examined.

[8] = Functional observational battery (side effect profile); type: in vivo
From the text: The side effect profile for an intra-peritoneally administered thioxanthenyl cubane (Compound 6) was examined and compared to diazepam using functional observational battery which is a series of observational markers designed to indicate level of impairment. The greater the functional observational battery score, the greater the impairment.

[9] = Asymmetric grid test (impairment of motor function); type: in vivo; settings: 4 mg/kg; compared to the null experiment
Experimental: To further examine the side effect of profile of Compound 6 the assymmetric grid test was conducted to measure impairment of motor function. Briefly, in the assymetric grid test the animal is placed on one side of a grid pattern, designed to challenge the animals motor function. On the other side of the grid is the animal's home cage or a reward. As the animal enters the grid it is monitored for mistakes by a camera placed horizontally in line with the grid. The camera records the number of forelimb and hindlimb intrusions through the grid and the higher the number, the greater the impairment.

NC(CC1c2ccccc2Sc2ccccc21)(C(=O)O)C12C3C4C1C1C2C3C41C(=O)O (stereo not shown) [Compound 6, 4-carboxycubane-1-thioxanthenyl-1-glycine]
reduction in freezing, context alone [1]: effective in both scenarios | reduction in freezing, context plus tone [1]: effective in both scenarios | neuroprotection in treated animals ([2]; 0.1, 1.0, 10 mg/kg intra-peritoneal, no obvious dose dependence): Neuroprotection was observed in all animals | ischemic damage to the hippocampus, especially retrospenial and piriform cortices, vs untreated ischemic animals ([2]; 0.1, 1.0, 10 mg/kg intra-peritoneal, prophylactic or therapeutic schedule): reduction in ischemic damage | incidence of seizures following ischemic insult ([2]; 0.1-10 mg/kg intra-peritoneal, dose-dependent): reduced | difference in neuronal cell number between ipsilateral and contralateral sides of the CA1 region ([2]; prophylactic or therapeutic treatment groups, 0.1, 1.0, 10 mg/kg): no significant difference | number of living cells in anoxic cultures relative to control anoxic cultures [3]: 2 to 3 times | number of bites, compared with diazepam 2 mg/kg ([4]; 10 mg/kg): equal reduction | number of pins, compared with diazepam 2 mg/kg ([4]; 10 mg/kg): equal reduction | time spent in the exposed (open, light) area of the maze ([5]; 1 mg/kg): only a tendency | oral efficacy on fear potentiated startle ([6]; gavage 12 mg/kg, 90 minute absorption period): effective | onset of effect on fear potentiated startle ([6]; gavage 15 mg/kg): 30 min | time of maximum effect on fear potentiated startle ([6]; gavage 15 mg/kg): 4 h | time of return of effect to base line ([6]; gavage 15 mg/kg): 8 h | effect on fear potentiated startle ([6]; intraperitoneal 1.0, 3.0, 10 and 15 mg/kg, 30 min after administration): dose dependent reduction | effect on fear potentiated startle at the highest dose ([6]; intraperitoneal, highest dose (15 mg/kg)): tendency to reverse the effect | dose of apparent maximum reduction in fear potentiated startle ([6]; intraperitoneal, 30 min after administration): 3 mg/kg | ischemic damage to the CA1 region of the hippocampus vs untreated ischemic animals ([7]; 7 days): reduction in ischemic damage | reduction in cell death ([7]; 7 days after the procedure): greater than 50% | impairment, functional observational battery score ([8]; in vivo): this level of impairment was not observed

CN1C(=O)CN=C(c2ccccc2)c2cc(Cl)ccc21 [diazepam, reference compound]
reduction in freezing, context alone [1]: effective | reduction in freezing, context plus tone [1]: only effective in the less stringent first paradigm | number of forelimb and hindlimb mistakes [9]: increases significantly | number of bites ([4]; 2 mg/kg): clear reduction | number of pins ([4]; 2 mg/kg): clear reduction | time spent in the exposed (open, light) area of the maze ([5]; 2 mg/kg): clear increase | effective oral dose level in fear potentiated startle ([6]; oral dose response (FIG. 9)): 7 mg/kg | impairment, functional observational battery score ([8]; intra-peritoneal, high doses (Compound 6 very high doses)): large degree of impairment
